Results taken from US5922719A, “Coumarin dopamine D4 receptor antagonists” (priority 1997, dated 1999).
Counter-ions that a name gives are not always drawn. Like-named read-outs stand apart in the source and are kept apart here.

How the values were obtained:
[1] = target: human dopamine D2 (Long form) receptor (Homo sapiens, UniProt P14416); assay: [3H]spiperone receptor binding assay, D2 (Long form) (CHO K1 membranes)
Description: (§1) A cell line expressing human dopamine D2 (Long form) receptors was purchased from Oregon Health Sciences University, Portland, Ore. The D2 receptor cDNA was subcloned into an expression vector, pRc/CMV. The plasmids were transfected by electroporation into CHO K1 cells. A single stable transfectant, resistant to the antibiotic G418, was isolated and selected for use in the binding studies. For D4 binding, CHO K1 cells stably transfected to express the human recombinant dopamine D4.2 receptor subtype, as described by Shih, et al., "The expression and functional characterization of human dopamine D4.2 receptor in CHO K1 cells," Soc. Neurosci., 1995;21(Part 1):621.
(§2) CHO K1 cells expressing either human D2 and D4.2 receptors were grown in 162 cm^2 culture flasks in F12 medium (Gibco Laboratories, Grand Island, N.Y.) supplemented with 10% fetal bovine serum (FBS, Hyclone, Logan, UT) in an atmosphere of 5% Co2 /95% air at 37° C. Cells were grown until confluent, after which growth medium was removed and replaced with 0.02% ethylene diamine tetracetate (EDTA) in a phosphate-buffered saline solution (Sigma Chemical Co; St. Louis, Mo.) and scraped from the flasks. The cells were centrifuged at about 1000×g for 10 minutes at […] and then resuspended in TEM buffer (25 mM Tris-HCL, pH 7.4, 5 mM EDTA, and 6 mM MgCl2) for D2 or the D4.2 buffer (50 mM Tris-HCl, pH 7.4, 5 mM EDTA, 1.5 mM CaCl2, 5 mM KCl, and 120 mM NaCl) and homogenized. The membranes were pelleted by centrifugation at 20,000×g at […] for 20 minutes. Then the pellets were resuspended in an appropriate buffer at 1 mL/flask and stored at -70° C. until used in the receptor binding assay.
After 60 minutes incubation at 25° C., the incubations were terminated by rapid filtration through Whatmann GF/B glass fibre filters (soaked for 1 hour in 0.5% polyethylenimine) on a -cell harvester, with three washes of 1 mL ice-cold buffer. Individual filter disks containing the bound ligand were placed in counting vials with 4 mL of scintillation fluid (Ready Gel, Beckman Instrument Inc, Fullerton, Calif.) and then counted in a Beckman LS-6800 liquid scintillation counter at an efficiency of 45%. Nonspecific binding was defined in presence of 1 mM of haloperidol.
(§3) Saturation and competition binding data were analyzed using an iterative nonlinear least-square curve-fitting Ligand program. […] Experimental compounds were made up as stock solutions in dimethyl sulfoxide (DMSO). […] Each observation was carried out in triplicate. To allow these calculations, Kd values were measured for the interaction of various ligands with the receptor. […]

[2] = target: T1, human recombinant dopamine D4.2 receptor (Homo sapiens, UniProt P21917, DEL265-296); assay: [3H]spiperone receptor binding assay, D4.2 (CHO K1 membranes); details: [3H]spiperone 0.2 nM, human D4.2, CHO K1 membranes, 60 minutes at 25° C.
T1 construct: expressed in transfected cells
T1 sequence (P21917 with tags, fused parts or gaps DEL265-296): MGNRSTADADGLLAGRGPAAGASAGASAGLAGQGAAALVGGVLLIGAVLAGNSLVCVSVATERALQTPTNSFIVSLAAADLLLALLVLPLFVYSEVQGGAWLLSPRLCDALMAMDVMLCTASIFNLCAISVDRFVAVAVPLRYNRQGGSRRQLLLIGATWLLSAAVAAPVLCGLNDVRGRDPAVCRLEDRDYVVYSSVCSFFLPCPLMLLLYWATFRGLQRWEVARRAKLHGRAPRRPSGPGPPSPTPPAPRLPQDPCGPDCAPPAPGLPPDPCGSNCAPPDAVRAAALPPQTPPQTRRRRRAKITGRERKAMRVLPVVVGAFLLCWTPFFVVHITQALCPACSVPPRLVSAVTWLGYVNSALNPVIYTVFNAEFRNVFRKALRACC
Description: as §1, with “Soc.” for “Soc. Neurosci., 1995;21(Part 1):621.”
as §2, with “Cells” for “CHO K1 cells expressing either human D2 and D4.2 receptors were grown in 162 cm^2 culture flasks in F12 medium (Gibco Laboratories, Grand Island, N.Y.) supplemented with 10% fetal bovine serum (FBS, Hyclone, Logan, UT) in an atmosphere of 5% Co2 /95% air at 37° C. Cells”
After 60 minutes incubation at 25° C., the incubations were terminated by rapid filtration through Whatmann GF/B glass fibre filters (soaked for 1 hour in 0.5% polyethylenimine) on a -cell harvester, with three washes of 1 mL ice-cold buffer. […] Nonspecific binding was defined in presence of 1 mM of haloperidol.
as §3

[3] = [3H]spiperone 0.2 nM, human D2 (Long form), CHO K1 membranes, 60 minutes at 25° C., read-out: D2 Ki

Chain of human dopamine D2 (Long form) receptor (P14416 whole entry): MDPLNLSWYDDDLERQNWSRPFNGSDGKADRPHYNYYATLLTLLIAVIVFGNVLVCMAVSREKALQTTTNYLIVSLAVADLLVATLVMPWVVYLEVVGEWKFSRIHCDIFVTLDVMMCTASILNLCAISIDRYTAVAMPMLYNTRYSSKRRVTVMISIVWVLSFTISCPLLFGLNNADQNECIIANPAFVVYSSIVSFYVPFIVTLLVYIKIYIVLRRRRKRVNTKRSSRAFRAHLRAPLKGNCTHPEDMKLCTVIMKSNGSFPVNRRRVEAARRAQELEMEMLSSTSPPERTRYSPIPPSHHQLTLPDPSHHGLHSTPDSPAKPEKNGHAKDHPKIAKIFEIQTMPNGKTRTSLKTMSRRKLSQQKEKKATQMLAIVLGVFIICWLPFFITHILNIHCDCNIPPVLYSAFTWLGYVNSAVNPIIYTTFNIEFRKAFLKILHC

| Ki [1, 3] [nM] | Ki ([2]; read-out: D4 Ki) [nM] | Compound | Ki ([2]; D4 Ki) [nM] | Ki [1] [nM] |
| --- | --- | --- | --- | --- |
| 7120 | 27.3 | O=c1ccc2ccc(CN3CCN(c4ccc(F)c(C(F)(F)F)c4)CC3)cc2o1 [Example 15, 7-[4-(4-Fluoro-3-trifluoromethyl-phenyl)-piperazin-1-ylmethyl]-chromen-2-one] | – | – |
| – | 93 | O=c1ccc2ccc(CN3CCN(c4ccc(Cl)cc4)CC3)cc2o1 [Example 28, 7-[4-(4-Chloro-phenyl)-piperazin-1-ylmethyl]-chromen-2-one] | – | – |
| – | 5000 | O=c1ccc2ccc(CN3CCN(c4ncccn4)CC3)cc2o1 [Example 32, 2H-1-Benzopyran-2-one, 7-[[4-(2-pyrimidinyl)-1-piperazinyl]methyl]-, dihydrochloride] | – | – |
| – | 163 | O=c1ccc2cc(CN3CCN(c4ncccn4)CC3)ccc2o1 [Example 50, 2H-1-Benzopyran-2-one, 6-[[4-(2-pyrimidinyl)-1-piperazinyl]methyl]-] | – | – |
| – | > 2000 | COc1cc(N2CCN(Cc3ccc4ccc(=O)oc4c3)CC2)cc(OC)c1OC [Example 31, 7-[4-(3,4,5-Trimethoxy-phenyl)-piperazin-1-ylmethyl]-chromen-2-one] | – | – |
| – | 91 | CCCSc1cccc(N2CCN(Cc3ccc4ccc(=O)oc4c3)CC2)c1 [Example 27, 7-[4-(3-Propylsulfanyl-phenyl)-piperazin-1-ylmethyl]-chromen-2-one] | – | – |
| – | – | O=c1ccc2ccc(CN3CCN(Cc4ccccc4)CC3)cc2o1 [Example 30, 7-(4-Benzyl-piperazin-1-ylmethyl)-chromen-2-one] | 2660 | – |
| – | 25.7 | Cc1ccc(C2CCN(Cc3ccc4ccc(=O)oc4c3)CC2)cc1 [Example 12, 7-(4-p-Tolyl-piperidin-1-ylmethyl)-chromen-2-one] | – | – |
| – | 41 | O=c1ccc2cc(CN3CCN(c4cccc(Cl)c4Cl)CC3)ccc2o1 [Example 45] | – | – |
| – | – | Cc1ccc(N2CCN(Cc3ccc4ccc(=O)oc4c3)CC2)cc1Cl [Example 1, 7-[4-(3-Chloro-4-methyl-phenyl)-piperazin-1-ylmethyl]-chromen-2-one] | 6.9 | > 5880 |
| 218 | 28 | O=c1ccc2cc(CN3CCN(c4ccccc4Cl)CC3)ccc2o1 [Example 43, 6-[4-(2-Chloro-phenyl)-piperazin-1-ylmethyl]-chromen-2-one] | – | – |
| – | – | Cc1cccc(N2CCN(Cc3ccc4oc(=O)ccc4c3)CC2)c1 [Example 49, 6-(4-m-Tolyl-piperazin-1-ylmethyl)-chromen-2-one] | 74 | – |
| – | 29.9 | O=c1ccc2ccc(CN3CCN(c4ccc(CO)c(F)c4)CC3)cc2o1 [Example 16, 7-[4-(3-Fluoro-4-hydroxymethyl-phenyl)-piperazin-1-ylmethyl]-chromen-2-one] | – | – |
| 2170 | 29.7 | O=c1ccc2cc(CN3CCN(c4ccccn4)CC3)ccc2o1 [Example 44, 2H-1-Benzopyran-2-one, 6-[[4-(2-pyridinyl)-1-piperazinyl]methyl]-, dihydrochloride] | – | – |
| – | – | O=c1ccc2ccc(CN3CCC(c4ccccc4)CC3)cc2o1 [Example 7, 7-(4-Phenyl-piperidin-1-ylmethyl)-chromen-2-one] | 18 | – |
| – | 49.7 | O=c1ccc2ccc(CN3CCN(c4ccc5ccccc5c4)CC3)cc2o1 [Example 23, 7-(4-Naphthalen-2-yl-piperazin-1-ylmethyl)-chromen-2-one] | – | – |
| 635 | 16.8 | O=c1ccc2ccc(CN3CCN(c4ccccc4Cl)CC3)cc2o1 [Example 5, 7-[4-(2-Chloro-phenyl)-piperazin-1-ylmethyl]-chromen-2-one] | – | – |
| 10600 | 11 | O=c1ccc2ccc(CN3CCN(c4ccc(CO)c(Cl)c4)CC3)cc2o1 [Example 2, 7-[4-(3-Chloro-4-hydroxymethyl-phenyl)-piperazin-1-ylmethyl]-chromen-2-one] | – | – |
| 2980 | 12.6 | O=c1ccc2cc(CN3CCN(c4ccc(CO)c(Br)c4)CC3)ccc2o1 [Example 37, 6-[4-(3-Bromo-4-hydroxymethyl-phenyl)-piperazin-1-ylmethyl]-chromen-2-one] | – | – |
| 3320 | 19.4 | O=c1ccc2cc(CN3CCN(c4cccc(Cl)c4)CC3)ccc2o1 [Example 41, 6-[4-(3-Chloro-phenyl)-piperazin-1-ylmethyl]-chromen-2-one] | – | – |
| 5880 | 26 | O=c1ccc2ccc(CN3CCN(c4cccc([N+](=O)[O-])c4)CC3)cc2o1 [Example 14, 7-[4-(3-Nitro-phenyl)-piperazin-1-ylmethyl]-chromen-2-one] | – | – |
| – | – | COc1ccc(N2CCN(Cc3ccc4ccc(=O)oc4c3)CC2)cc1 [Example 26, 7-[4-(4-Methoxy-phenyl)-piperazin-1-ylmethyl]-chromen-2-one] | 75 | – |
| – | – | O=c1ccc2ccc(CN3CCN(c4ccc(F)cc4)CC3)cc2o1 [Example 24, 7-[4-(4-Fluoro-phenyl)-piperazin-1-ylmethyl]-chromen-2-one] | 59 | – |
| – | 39.5 | O=c1ccc2ccc(CN3CCN(c4ccc(CO)c(Br)c4)CC3)cc2o1 [Example 19, 7-[4-(3-Bromo-4-hydroxymethyl-phenyl)-piperazin-1-ylmethyl]-chromen-2-one] | – | – |
| – | 128 | Cc1c(Cl)cccc1N1CCN(Cc2ccc3ccc(=O)oc3c2)CC1 [Example 29, 7-[4-(3-Chloro-2-methyl-phenyl)-piperazin-1-ylmethyl]-chromen-2-one] | – | – |
| – | 316 | COc1cc(N2CCN(Cc3ccc4oc(=O)ccc4c3)CC2)cc(OC)c1OC [Example 51, 6-[4-(3,4,5-Trimethoxy-phenyl)-piperazin-1-ylmethyl]-chromen-2-one] | – | – |
| – | 41 | O=c1ccc2cc(CN3CCN(c4ccc(F)cc4)CC3)ccc2o1 [Example 46, 6-[4-(4-Fluoro-phenyl)-piperazin-1-ylmethyl]-chromen-2-one] | – | – |

| Compound | Ki [1, 3] [nM] | Ki ([2]; read-out: D4 Ki) [nM] | Ki ([2]; D4 Ki) [nM] | Ki [1] [nM] |
| --- | --- | --- | --- | --- |
| Cc1ccc(N2CCN(Cc3ccc4ccc(=O)oc4c3)CC2)cc1C [Example 3, 7-[4-(3,4-Dimethyl-phenyl)-piperazin-1-ylmethyl]-chromen-2-one] | 433 | – | 13.9 | – |
| Cc1cccc(N2CCN(Cc3ccc4ccc(=O)oc4c3)CC2)c1 [Example 17, 7-(4-m-Tolyl-piperazin-1-ylmethyl)-chromen-2-one] | 4400 | – | 32 | – |
| O=c1ccc2ccc(CN3CCN(c4ccccc4)CC3)cc2o1 [Example 13, 7-(4-Phenyl-piperazin-1-ylmethyl)-chromen-2-one] | 5340 | – | 26 | – |
